Where two headings read alike, the source gives them in different places. Values belong to the compound of their own block, whether it stands above or below them.
Tests used:
OR7D4 = biological target: T1, OR7D4 (Homo sapiens, UniProt Q8NG98, D296E/E302K/G299D); assay: cell-based; format: cell-based; conditions: for EC50: read-out: Potency EC50
T1 construct: expressed in transfected cells; host or cells: HEK293T cells stably expressing human RTP1S (V227I) and RTP2 (L220R)
T1 sequence (Q8NG98 with tags, fused parts or gaps D296E/G299D/E302K limits assumed): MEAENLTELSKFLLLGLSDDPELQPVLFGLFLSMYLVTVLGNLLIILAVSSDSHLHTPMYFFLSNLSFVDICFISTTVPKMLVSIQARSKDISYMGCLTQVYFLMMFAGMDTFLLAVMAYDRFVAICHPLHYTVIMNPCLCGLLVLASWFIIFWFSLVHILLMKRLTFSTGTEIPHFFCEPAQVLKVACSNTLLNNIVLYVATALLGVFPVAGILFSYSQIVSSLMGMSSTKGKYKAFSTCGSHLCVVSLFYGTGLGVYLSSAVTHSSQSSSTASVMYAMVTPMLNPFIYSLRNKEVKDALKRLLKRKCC
Source text: (§1) To create an expression plasmid, an OR coding sequence fused at the end of TM7 to the desired C-terminus sequence was synthesized by a DNA synthesis service provider (BioCat GmbH, Germany) and inserted into pcDNA3.1(+) (Invitrogen, MA, USA) downstream of the CMV promoter sequence (SEQ ID NO: 82) using BamHI and Notl restriction sites. All the synthetic OR nucleotide sequences described below in Examples 1-15 further contained at their N-terminus a nucleotide sequence encoding a signal peptide (mmLucy-FLAG-rho, SeQ ID NOs: 80, 81) and at the C-terminus the bgh terminator sequence (SEQ ID NO: 83). All the OR expression plasmids also contain a Kozak sequence (GCCACC) between the BamHI restriction site and the start codon of the signal peptide. These plasmids thus contain a constitutively expressed OR gene.
Similarly, in Figure 7 the dose-response of OR7D4 is shown when tested both with androstenone and the closely related molecule androstenol. […] Thus, a better understanding of the receptive space of OR7D4 is possible based on the improved sensitivity of the assay provided by the modified variant.

OR5B12 [1] = assay: cell-based; format: cell-based, human
Source text: as §1

OR5B12 [2] = biological target: T2, OR5B12 (Homo sapiens, UniProt Q96R08); assay: cell-based; format: cell-based
T2 construct: expressed in transfected cells; host or cells: HEK293T cells stably expressing human RTP1S (V227I) and RTP2 (L220R)
T2 sequence (Q96R08 with tags, fused parts or gaps): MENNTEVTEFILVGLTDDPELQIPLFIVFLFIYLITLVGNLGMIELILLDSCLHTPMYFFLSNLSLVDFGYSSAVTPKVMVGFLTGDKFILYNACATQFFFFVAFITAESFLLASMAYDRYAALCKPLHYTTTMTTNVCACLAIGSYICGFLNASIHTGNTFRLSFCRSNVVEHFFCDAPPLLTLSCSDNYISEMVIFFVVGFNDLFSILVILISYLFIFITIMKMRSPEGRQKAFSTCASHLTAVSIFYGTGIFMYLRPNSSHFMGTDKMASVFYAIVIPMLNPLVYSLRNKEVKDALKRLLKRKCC
Source text: as §1

OR5B12 [3] = biological target: T3, OR5B12 (Homo sapiens, UniProt Q96R08); assay: cell-based; format: cell-based; conditions: wild-type
T3 construct: expressed in transfected cells; host or cells: HEK293T cells stably expressing human RTP1S (V227I) and RTP2 (L220R)
T3 sequence (Q96R08 1-314): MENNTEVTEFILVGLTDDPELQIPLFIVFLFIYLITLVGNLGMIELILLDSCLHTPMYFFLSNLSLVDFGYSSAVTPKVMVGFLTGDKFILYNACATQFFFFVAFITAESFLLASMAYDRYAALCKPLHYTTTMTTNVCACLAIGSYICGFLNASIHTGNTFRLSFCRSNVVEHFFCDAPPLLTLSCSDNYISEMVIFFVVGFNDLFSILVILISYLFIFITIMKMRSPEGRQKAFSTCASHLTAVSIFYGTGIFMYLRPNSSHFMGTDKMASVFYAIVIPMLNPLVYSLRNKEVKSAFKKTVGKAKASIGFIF
Source text: as §1

OR2M2 = assay: Activation of modified OR2M2 by sulfur compounds in presence of copper (luciferase); format: cell-based, human; conditions: modified C-terminus
Source text: The most pungent odorant in human axillary sweat with an ODT of 1 picogram / L air is 3-methyl-3-sulfanyl-hexanol (also known as 3-methyl-3-mercapto-hexanol) (Natsch et al. identification of Odoriferous Sulfanylalkanols in Human Axilla Secretions and Their Formation through Cleavage of Cysteine Precursors by a C-S Lyase Isolated from Axilla bacteria. […] 2004; 1:1058-1072). So far, no OR has been described which can selectively detect this key odorant leading to undesired axilla odor in human subjects. By screening a library of receptor variants with the C-terminal sequence SEQ ID NO: 86 in presence of copper against a library of 52 sulfur compounds (see example 5), a hitherto orphan receptor, OR2M2, was identified, which is activated by 3-methyl-3-mercapto-hexanol and closely related chemicals, but not by other sulfur odorants (Figure 19).

OR8K3 [4] = biological target: T4, OR8K3 (Homo sapiens, UniProt Q8NH51); assay: cell-based; format: cell-based
T4 construct: expressed in transfected cells; host or cells: HEK293T cells stably expressing human RTP1S (V227I) and RTP2 (L220R)
T4 sequence (Q8NH51 1-312): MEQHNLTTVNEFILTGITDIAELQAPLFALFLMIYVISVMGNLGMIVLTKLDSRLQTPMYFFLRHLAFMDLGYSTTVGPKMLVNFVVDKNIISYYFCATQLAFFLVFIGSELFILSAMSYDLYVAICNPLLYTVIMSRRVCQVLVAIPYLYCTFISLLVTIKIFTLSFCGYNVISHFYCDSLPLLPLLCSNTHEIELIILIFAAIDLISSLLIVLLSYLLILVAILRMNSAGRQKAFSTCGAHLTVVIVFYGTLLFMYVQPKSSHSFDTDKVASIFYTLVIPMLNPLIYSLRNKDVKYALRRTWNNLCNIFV
Source text: as §1
(§2) Thus, using the improved sensitivity of the assay provided by the modified variant, activation of OR8K3 by a broader set of mint-smelling molecules can be detected.
(§3) Knowing the importance of the C-terminal sequence for proper expression as observed in the previous examples, an obvious way to improve expression might be just to provide a hybrid receptor whereby the C-terminal domain in a non-functional or poorly functional receptor is replaced by the C-terminal domain of a functional receptor. […] Thus the C-terminal sequence of OR8K3 was replaced with the C-terminal sequence of the ambrettolide-receptor OR1N2 or the musk receptor OR5AN1. […] Thus the improvement achieved with the modified C-terminal sequences of this disclosure cannot be achieved by simply generating chimeric receptors combining a functional C-terminal domain of a functional receptor with a poorly expressed receptor.

OR8K3 [5] = assay: cell-based; format: cell-based, human
Source text: as §1, §2, §3

OR8K3 [6] = biological target: T5, OR8K3 (Homo sapiens, UniProt Q8NH51, D295E/Y298D); assay: cell-based; format: cell-based
T5 construct: expressed in transfected cells; host or cells: HEK293T cells stably expressing human RTP1S (V227I) and RTP2 (L220R)
T5 sequence (Q8NH51 with tags, fused parts or gaps D295E/Y298D): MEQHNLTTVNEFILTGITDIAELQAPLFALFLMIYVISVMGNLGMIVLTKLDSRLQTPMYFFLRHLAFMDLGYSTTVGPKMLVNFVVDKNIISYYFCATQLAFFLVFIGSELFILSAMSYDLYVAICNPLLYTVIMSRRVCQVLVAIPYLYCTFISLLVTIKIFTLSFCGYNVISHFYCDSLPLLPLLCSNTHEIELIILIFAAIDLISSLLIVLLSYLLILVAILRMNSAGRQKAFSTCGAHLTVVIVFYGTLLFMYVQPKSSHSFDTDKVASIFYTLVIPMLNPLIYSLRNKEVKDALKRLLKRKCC
Source text: as §1, §2, §3

[7] = changed C-term SEQ ID NO: 86, read-out: Potency EC50

SMILES: C[C@]12CCC(=O)C[C@@H]1CC[C@@H]1[C@@H]2CC[C@]2(C)C=CC[C@@H]12 [Androstenone]
Comments on efficacy (OR7D4): 3-fold lower maximal induction for wild-type
Fold-improvement potency (OR7D4): 66
EC50 (OR7D4; changed C-term SEQ ID NO: 86): 0.13 µM
EC50 (OR7D4; wild-type): 8.44 µM

SMILES: CCCCCC1C(=O)CCC1CC(=O)OC (stereo not shown) [Hedione]
Comments on efficacy (OR5B12 [1]): Induction wild-type only 1.75-fold
Fold-improvement potency (OR5B12 [1]): >5
Fold-improvement threshold (OR5B12 [1]): >9
EC50 (OR5B12 [2]; [7]): 58.3 µM
Detection threshold; concentration for 2-fold induction (OR5B12 [2]; changed C-term. SEQ ID NO: 86): 29 µM
Detection threshold; concentration for 2-fold induction (OR5B12 [3]): n.i. >>( 250) µM
EC50 (OR5B12 [3]; read-out: Potency EC50): > 250 µM

SMILES: C[C@]12CC[C@@H](O)C[C@@H]1CC[C@@H]1[C@@H]2CC[C@]2(C)C=CC[C@@H]12 [androstenol]
activation of OR7D4 wild-type vs modified (OR7D4): can only activate the modified version of the receptor

activation of OR2M2 (OR2M2): activated
SMILES: CCCC(C)(S)CCO (stereo not shown) [3-methyl-3-sulfanyl-hexanol]

SMILES: CC1CCC(C(C)C)C(O)C1 (stereo not shown) [Menthol]
Detection threshold; concentration for 2-fold induction (OR8K3 [4]): 160 µM
EC50 (OR8K3 [4]; wild-type, read-out: Potency EC50): 236 µM
Comments on efficacy (OR8K3 [5]): 3-fold lower maximal induction for wild-type
Fold-improvement potency (OR8K3 [5]): 2
functional response (OR8K3 [5]; OR8K3 with C-terminal sequence of OR1N2 or OR5AN1): did not show any functional response
Detection threshold; concentration for 2-fold induction (OR8K3 [6]): 11 µM
EC50 (OR8K3 [6]; [7]): 115 µM

activation of OR2M2 (OR2M2): activated
SMILES: CCC(CC)C(=O)N(C)c1cccc(C)c1 [Paradisamide]

activation of OR2M2 (OR2M2): activated
SMILES: C=C(C)C1CCC2=CC(=O)CC(C)C2(C)C1 (stereo not shown) [Nootkatone, 5,6-Dimethyl-8-iso-propenylbicyclo-(4,4,0)-dec-1-en-3-one]

From patent publication EP4664463A1, “COMPUTER-IMPLEMENTED METHOD FOR OLFACTORY PROPERTY PREDICTION” (Givaudan SA, priority 2024, dated 2025)
